Data as given in patent publication US9895439B2, “Combined treatment with netrin-1 interfering drug and chemotherapeutic drug” (NETRIS PHARMA, priority 2012, dated 2018).
Numbered stars: 1 amine (or outer) side, 2 acyl side, 3 side chain; on linkers, the order of the positions; unused ones are H or OH. Bridge positions count the residues as written; N and C are the ends. Square brackets hold non-standard residues; d marks the D form. Peptide text beside a SMILES is read from it. I, II: the chains in the order shown. Actinocin(9to1) = Cc1c2oc3c(C)ccc(C(=O)[*:1])c3nc-2c(C(=O)[*:2])c(N)c1=O; NMeV = CN[C@H](C(=O)O)C(C)C; Sar = CNCC(=O)O

Experiments:
[1] = system: Netrin-1 gene expression in A549 lung cancer cell line; assay: Netrin-1 gene expression by quantitative RT-PCR in A549 cells; assay type: cell-based, human; details: 24 hours
[2] = system: Netrin-1 protein in A549 cells; assay: Netrin-1 protein levels by western blotting in A549 cells; assay type: cell-based, human; details: A549, 1 μM and 2 μM Doxorubicin, 48 hours, normalized to β-actin
Experimental: For immunoblot analysis, cells were lysed by sonication in modified RIPA buffer (50 mM Tris-HCl, pH7.5, 150 mM NaCl, 1% NP-40, 0.5% sodium deoxycholate, 0.1% SDS, 1 mM EDTA, protease inhibitor cocktail and 5 mM DTT) and incubated 1 h at 4° C. Cellular debris were pelletted by centrifugation (10.000 g 15′ at 4° C.) and protein extracts (200 μg per lane) were loaded onto 10% SDS-polyacrylamide gels and blotted onto PVDF sheets (Millipore Corporation, Billerica, Mass., U.S.A.). Filters were blocked with 10% non-fat dried milk and 5% BSA in PBS/0.1% Tween 20 (PBS-T) over-night and then incubated for 2 h with rabbit polyclonal α-netrin-1 (dilution 1:500, clone H104, Santa Cruz Biotechnology, Santa Cruz, Calif., USA) and mouse monoclonal β-actin (Santa Cruz Biotechnologies) antibodies. After three washes with PBS-T, filters were incubated with the appropriate HRP-conjugated secondary antibody (1:10000, Jackson ImmunoResearch, Suffolk, UK) for 1 h. Detection was performed using West Dura Chemiluminescence System (Pierce, Rockford, Ill., U.S.A.).

[3] = system: DCC gene expression in A549 cells; assay: Netrin-1 receptor gene expression in A549 cells: DCC; assay type: cell-based, human; details: A549 cells following Doxorubicin treatment
[4] = system: UNC5A gene expression in A549 cells; assay: Netrin-1 receptor gene expression in A549 cells: UNC5A; assay type: cell-based, human; details: A549 cells following Doxorubicin treatment
[5] = system: UNC5B gene expression in A549 cells; assay: Netrin-1 receptor gene expression in A549 cells: UNC5B; assay type: cell-based, human
[6] = system: UNC5C gene expression in A549 cells; assay: Netrin-1 receptor gene expression in A549 cells: UNC5C; assay type: cell-based, human; details: A549 cells following Doxorubicin treatment
[7] = system: UNC5D gene expression in A549 cells; assay: Netrin-1 receptor gene expression in A549 cells: UNC5D; assay type: cell-based, human; details: A549 cells following Doxorubicin treatment
A549 cells [8] = assay: Caspase-3 activity assay in A549 cells; assay type: cell-based, human; details: A549 transfected with scramble siRNA (siCTRL), Doxorubicin 24 hours
Experimental: (§1) FIGS. 13-14: Netrin-1 silencing triggers apoptosis in combination with Doxorubicin treatment. A549 cells were transfected as in (FIGS. 10-12), and treated with the indicated Doxorubicin concentrations for 24 hours. […] DoxoR, Doxorubicin.

A549 cells [9] = assay: DNA fragmentation in A549 cells; assay type: cell-based, human; details: A549 transfected with scramble siRNA (siCTRL), Doxorubicin 24 hours
Experimental: as §1

[10] = system: A549 cells engrafted in nude mice; assay: A549 xenograft in athymic nude mice, tumor growth; assay type: in vivo; details: i.p. twice a week for two weeks, TRAP-netrin^UNC5A 20 mg/kg, Doxorubicin 2 mg/kg, alone or combined
Experimental: FIG. 22: Netrin-1 interfering potentiates Doxorubicin anti-cancer effect in a preclinical animal model. A549 cells were engrafted in seven-weeks old female athymic nude mice. Once tumors reached a 100 mm^3-volume, mice were treated intraperitoneally with TRAP-netrin^UNC5A (20 mg/kg), Doxorubicin (2 mg/kg) or with a combination of both drugs, twice a week for two weeks. As a control, mice were injected with PBS. Histogram represents tumor volume growth for each group as a function of days post-xenografts.
Seven-week-old (20-22 g body weight) female athymic nu/nu mice were obtained from Charles River animal facility. The mice were housed in sterilized filter-topped cages and maintained in a pathogen-free animal facility. A549 cells were implanted by s.c. injection of 10^7 cells in 200 μL of PBS into the right flank of the mice. Once tumors were established (V≈100 mm^3), mice were treated with netrin-1 interfering drugs and/or cytotoxic drugs for two weeks. Tumor sizes were measured with a caliper. The tumor volume was calculated with the formula v=0.5*(length*width^2). At the end of the treatment, tumors were harvested, weighted and were embedded in 7.5% gelatin—0.12M sucrose and sectioned into 20 μm slices.
We then assessed whether the in vitro effect seen above could be translated in vivo in a therapeutic perspective. […]

[11] = system: Netrin-1 gene expression in H460 lung cancer cell line; assay: Netrin-1 gene expression by quantitative RT-PCR in H460 cells; details: H460, 2 μM Doxorubicin, 24 hours, normalized with GAPDH, compared to not-treated cells
[12] = system: DCC expression in panel of 15 cancer cell lines; details: drug at IC10, IC30, IC50 or ICMAX, 24 hours
[13] = system: UNC5B expression in panel of 15 cancer cell lines; details: drug at IC10, IC30, IC50 or ICMAX, 24 hours
[14] = system: UNC5D expression in panel of 15 cancer cell lines; details: drug at IC10, IC30, IC50 or ICMAX, 24 hours
A549 cells [15] = assay: Cell death rate by ToxiLight bioluminescent cytotoxicity assay in A549 cells; details: 48 hours; for Potentiation of Doxorubicin-induced cell death (toxilight): A549, 2 μg/mL fusion protein plus Doxorubicin
Experimental: Cell death rate (FIG. 10), measured by toxilight kit as described in materials and methods section, and cell survival (FIG. 11), was evaluated 48 hours after treatment. Results were normalized to control, untreated cells.
A549 cells were transfected with scramble siRNA (siCTRL), netrin-1-specific siRNA (siNet), UNC5B-specific siRNA (siUnc5B) and with a combination of netrin-1 and UNC5B-targeting siRNA. 24 hours after transfection, cells were treated with the indicated Doxorubicin concentrations for 48 hours, and cell death rate was measured by toxilight and normalized to control, untreated cells.
FIGS. 16-17: A549 cells were treated for 48 hours with the indicated Doxorubicin concentrations in presence or not of 2 μg/mL TRAP-netrin^DCC (FIG. 16) and TRAP-netrin^Unc5A (FIG. 17). […] Results were normalized to untreated cells. *, P<0.05; **, P<0.01; ***, P<0.001.
Cell death was evaluated by means of different methods. For total cell death assays, 5*10^3 cells per well were grown in 96-well plate in serum-poor medium and treated with Doxorubicin. 48 hours later, cell death was evaluated using the bioluminescent cytotoxicity assay ToxiLight (Lonza, Basel, Switzerland), according to manufacturer's instruction. […] Cell survival was measured by MTS assay (CellTiter 96 AQueous One Solution Cell Proliferation Assay, Promega) in 96-well plates. MTS assay was performed according to the manufacturer's procedures on 3*10^3 cells grown in serum-poor medium for 16 hours and then treated for 48 hours with the indicated Doxorubicin concentrations in serum-free medium.

MiaPacA cells = assay: Cell survival by MTS assay in MiaPacA cells; assay type: cell-based, human; details: 48 hours
[16] = system: netrin-1 expressing tumor cells; assay: Death of netrin-1 expressing tumor cells in vitro (not shown); assay type: cell-based; details: data not shown
A549 cells [17] = assay: Cell survival by MTS assay in A549 cells; details: 48 hours
Experimental: FIGS. 18-19: A549 cells were treated with PBS or 2 μg/mL TRAP-netrin^Unc5A, in presence of the indicated concentrations of 5-Fluorouracil (5-FU, FIG. 18) or Cisplatin (FIG. 19). 48 hours after co-treatment, cell survival was measured by MTS and normalized to untreated cells. *, P<0.05; **, P<0.01; ***, P<0.001.
Cell survival was measured by MTS assay (CellTiter 96 AQueous One Solution Cell Proliferation Assay, Promega) in 96-well plates.

COc1cccc2c1C(=O)c1c(O)c3c(c(O)c1C2=O)C[C@@](O)(C(=O)CO)C[C@@H]3O[C@H]1C[C@H](N)[C@H](O)[C@H](C)O1 [Doxorubicin]
netrin-1 mRNA level increase ([1]; A549, 2 μM Doxorubicin, normalized with GAPDH, compared to not-treated cells): 430 fold
Netrin-1 protein levels [2]: strongly accumulated
DCC gene expression [3]: significantly up-regulated
UNC5A gene expression [4]: significantly up-regulated
UNC5B gene expression ([5]; A549 cells following Doxorubicin treatment, result in words): significantly up-regulated
UNC5B receptor level increase ([5]; A549 cells treated with Doxorubicin): 44 folds
UNC5C gene expression [6]: non-significant variations
UNC5D gene expression [7]: non-significant variations
Apoptosis (active caspase-3) (A549 cells [8]): failed to induce apoptosis
Apoptosis (DNA fragmentation) (A549 cells [9]): failed to induce apoptosis
Tumor growth inhibition [10]: detectable but weak tumor growth inhibiting effect
netrin-1 mRNA level increase [11]: 300 fold
cell lines with up-regulation of DCC [12]: 87%
cell lines with up-regulation of UNC5B [13]: 80%
cell lines with up-regulation of UNC5D [14]: 67%
Cell death rate and cell survival under Doxorubicin (A549 cells [15]; A549 scramble siRNA-transfected cells, increasing Doxorubicin concentrations): general resistance

N.N.[Cl][Pt][Cl] [Cisplatin]
cell lines with up-regulation of DCC [12]: 36%

TRAP-netrin^UNC5A: two immunoglobin (Ig1-Ig2) domains of the UNC5A ectodomain fused to IgG1 Fc portion; SEQ ID NO: 1
Cell death, co-treatment with 5FU (cell survival by MTS) (MiaPacA cells; 2 μg/mL fusion protein plus 5FU): potentiated cell death
Cell death, co-treatment with Doxorubicin (cell survival by MTS) (MiaPacA cells; 2 μg/mL fusion protein plus Doxorubicin): potentiated cell death
Tumor growth inhibition [10]: detectable but weak tumor growth inhibiting effect
Death of netrin-1 expressing tumor cells in vitro [16]: trigger death of netrin-1 expressing tumor cells
Potentiating effect on cell death, co-treatment with 5FU (cell survival by MTS) (A549 cells [17]; A549, 2 μg/mL fusion protein plus 5FU): Comparable potentiating effect on cell death
Potentiating effect on cell death, co-treatment with Cisplatin (cell survival by MTS) (A549 cells [17]; A549, 2 μg/mL fusion protein plus Cisplatin): Comparable potentiating effect on cell death
Potentiation of Doxorubicin-induced cell death (toxilight) (A549 cells [15]): strongly potentiate

Cc1c2oc3c(C)ccc(C(=O)N[C@@H]4C(=O)N[C@H](C(C)C)C(=O)N5CCC[C@H]5C(=O)N(C)CC(=O)N(C)[C@@H](C(C)C)C(=O)O[C@@H]4C)c3nc-2c(C(=O)N[C@@H]2C(=O)N[C@H](C(C)C)C(=O)N3CCC[C@H]3C(=O)N(C)CC(=O)N(C)[C@@H](C(C)C)C(=O)O[C@@H]2C)c(N)c1=O [Actinomycin D] (I: T[dV]P[Sar][NMeV] / II: T[dV]P[Sar][NMeV]; ester I:1-I:C, II:1-II:C; linker I:N-II:N via Actinocin(9to1))
Effect on Doxorubicin-mediated netrin-1 up-regulation ([1]; A549, 2 μM Doxorubicin plus Actinomycin D 100 μg/ml): fully prevents

O=c1[nH]cc(F)c(=O)[nH]1 [5FU, 5-Fluorouracil]
cell lines with up-regulation of DCC [12]: 43%

CC(=O)O[C@H]1C(=O)[C@@]2(C)[C@H]([C@H](OC(=O)c3ccccc3)[C@]3(O)C[C@H](OC(=O)[C@H](O)[C@@H](NC(=O)c4ccccc4)c4ccccc4)C(C)=C1C3(C)C)[C@]1(OC(C)=O)CO[C@@H]1C[C@@H]2O [Taxol, paclitaxel]
cell lines with up-regulation of DCC [12]: 53%

B1: TRAP-netric^DCC: fifth fibronectin domain of DCC ectodomain fused to IgG1 Fc portion (protein)
chain: PPVGVQAVALTHDAVRVSWADNSVPKNQKTSEVRLYTVRWRTSFSASAKYKSEDTTSLSYTATGLKPNTMYEFSVMVTKNRRSSTWSMTAHATTYEA
modifications: left off: a dimerising Fc or GST
notes: fifth fibronectin domain of DCC ectodomain fused to IgG1 Fc portion
Death of netrin-1 expressing tumor cells in vitro [16]: trigger death of netrin-1 expressing tumor cells
Potentiation of Doxorubicin-induced cell death (toxilight) (A549 cells [15]): strongly potentiate
